Results on 15 compounds are retold here after patent US12440496B2, “Natriuretic peptide receptor a agonists useful for the treatment of cardiometabolic diseases, kidney disease and diabetes” (Merck Sharp & Dohme LLC, priority 2019, dated 2025).

Structures are written as SMILES. pEC50: −log10 of the molar value.

This experiment addresses T1, hNPRA (Homo sapiens, UniProt P16066).
T1 construct: expressed in transfected cells
T1 sequence (P16066 33-1061): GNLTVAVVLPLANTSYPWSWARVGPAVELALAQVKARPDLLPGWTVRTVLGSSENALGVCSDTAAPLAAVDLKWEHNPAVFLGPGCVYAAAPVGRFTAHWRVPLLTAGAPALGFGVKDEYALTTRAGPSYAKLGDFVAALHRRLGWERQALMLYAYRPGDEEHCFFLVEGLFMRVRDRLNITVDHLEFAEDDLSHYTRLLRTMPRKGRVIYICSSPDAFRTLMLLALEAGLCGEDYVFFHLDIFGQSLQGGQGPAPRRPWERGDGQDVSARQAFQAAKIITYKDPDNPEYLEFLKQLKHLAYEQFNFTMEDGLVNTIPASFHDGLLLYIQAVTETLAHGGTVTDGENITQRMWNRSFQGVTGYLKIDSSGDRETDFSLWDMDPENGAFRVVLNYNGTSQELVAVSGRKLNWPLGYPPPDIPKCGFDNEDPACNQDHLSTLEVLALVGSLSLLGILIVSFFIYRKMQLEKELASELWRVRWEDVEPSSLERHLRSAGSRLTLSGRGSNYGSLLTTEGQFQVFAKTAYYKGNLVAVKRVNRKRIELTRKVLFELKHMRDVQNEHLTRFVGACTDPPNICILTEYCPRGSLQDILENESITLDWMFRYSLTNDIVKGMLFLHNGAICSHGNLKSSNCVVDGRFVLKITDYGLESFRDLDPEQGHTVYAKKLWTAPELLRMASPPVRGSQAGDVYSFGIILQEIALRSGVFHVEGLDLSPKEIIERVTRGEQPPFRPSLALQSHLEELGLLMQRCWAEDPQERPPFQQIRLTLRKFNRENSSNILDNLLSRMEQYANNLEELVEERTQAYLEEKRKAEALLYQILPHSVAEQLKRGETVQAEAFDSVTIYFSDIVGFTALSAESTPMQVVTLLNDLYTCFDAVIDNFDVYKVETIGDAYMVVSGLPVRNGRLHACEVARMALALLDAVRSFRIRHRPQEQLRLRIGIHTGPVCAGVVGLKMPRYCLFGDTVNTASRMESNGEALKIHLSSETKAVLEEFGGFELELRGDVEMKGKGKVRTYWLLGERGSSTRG
As to the kind of experiment: NPRA Functional Cell Assay (cGMP HTRF, NPRA HEK JumpIn stable cells). The class given is cell-based. Conditions: cGMP production, 1 hour at 37° C., 10-point dose response. In short, it runs like this:
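cGMP HTRF read-out after 1 hour compound treatment at 37° C. of human NPRA-expressing HEK JumpIn cells, 1500 cells/well, in buffer with phosphodiesterase inhibitors IBMX and RO20 (100 uM each). Signal converted to [cGMP] by calibration curve; EC50s fitted by 4-parameter logistic; 50 nM h-ANP as positive response.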
On the technique in general: Time-resolved FRET reads energy transfer from a long-lived donor to a nearby acceptor.
The pEC50 is the negative decadic logarithm of the EC50, by convention in mol/L. Higher therefore signals a small EC50. With `CN1CCC(NC(=O)c2cccc([C@@H](CCN3CCC(C(=O)O)CC3)NC(=O)c3nc4cc5c(nc4s3)CC[C@H](C(C)(C)C)C5)c2)C1` (mixture of isomers) [Example 121, 1-[rac-(3R)-3-[3-[(1-methylpyrrolidin-3-yl)carbamoyl]phenyl]-3-[[rac-(7S)-7-tert-butyl-5,6,7,8-tetrahydrothiazolo [5,4-b]quinoline-2-carbonyl]amino]propyl]piperidine-4-carboxylic acid], the pEC50 was 6.65. In turn, `CC(C)(C)[C@H]1CCc2nc3sc(C(=O)N[C@H](CCN4CCC(C(=O)O)CC4)c4cccc(C(=O)NC5CNC5)c4)nc3cc2C1` (racemic) [Example 122, 1-[rac-(3R)-3-[3-(azetidin-1-ium-3-ylcarbamoyl)phenyl]-3-[rac-(7S)-7-tert-butyl-5,6,7,8-tetrahydrothiazolo [5,4-b]quinoline-2-carbonyl]amino]propyl] piperidine-4-carboxylic acid; 2,2,2-trifluoroacetate] showed a pEC50 of 6.20. With `CC(C)(C)[C@H]1CCc2nc3sc(C(=O)N[C@H](CCN4CCC(C(=O)O)CC4)c4cccc(C(=O)NC5CN(Cc6ccccc6)C5)c4)nc3cc2C1` (racemic) [Example 123, 1-[rac-(3R)-3-[3-{(1-benzylazetidin-3-yl)carbamoyl]phenyl]-3-[[rac-(7S)-7-tert-butyl-5,6,7,8-tetrahydrothiazolo [5,4-b]quinoline-2-carbonyl]amino]propyl] piperidin-1-ium-4-carboxylic acid; 2,2,2-trifluoroacetate], the pEC50 is 6.18. As for `CC(C)(C)[C@H]1CCc2nc3sc(C(=O)N[C@H](CCN4CCC(C(=O)O)CC4)c4cccc(C(=O)NC5CCN(C6CC6)C5)c4)nc3cc2C1` (mixture of isomers) [Example 124, 1-[rac-(3R)-3-[3-[(1-cyclopropylpyrrolidin-3-yl)carbamoyl]phenyl]-3-[[rac-(7S)-7-tert-butyl-5,6,7,8-tetrahydrothiazolo [5,4-b]quinoline-2-carbonyl]amino]propyl]piper idin-1-ium-4-carboxylic acid; 2,2,2-trifluoroacetate], the pEC50 was 6.03. In turn, `CC1(NC(=O)c2cccc([C@@H](CCN3CCC(C(=O)O)CC3)NC(=O)c3nc4cc5c(nc4s3)CC[C@H](C(C)(C)C)C5)c2)CNC1` (racemic) [Example 125, 1-[rac-(3R)-3-[3-[(3-methylazetidin-1-ium-3-yl)carbamoyl]phenyl]-3-[[rac-(7S)-7-tert-butyl-5,6,7,8-tetrahydrothiazolo [5,4-b]quinoline-2-carbonyl]amino]propyl] piperidine-4-carboxylic acid; 2,2,2-trifluoroacetate] had a pEC50 of 5.70. `CC(C)(C)[C@H]1CCc2nc3sc(C(=O)N[C@H](CCN4CCC(O)CC4)c4ccc(-c5csc(C(=O)O)c5)cc4)nc3cc2C1` (racemic) [Example 126, 4-[4-[rac-(1R)-3-(4-hydroxy-1-piperidyl)-1-[[rac-(7S)-7-tert-butyl-5,6,7,8-tetrahydrothiazolo[5,4-b]quinoline-2-carbonyl]amino]propyl]phenylthiophene-2-carboxylic acid] had a pEC50 of 6.43. Next, `CC(C)(C)[C@H]1CCc2nc3sc(C(=O)N[C@H](CCN4CCC(O)CC4)c4ccc(-c5cnc(=O)[nH]c5)cc4)nc3cc2C1` (racemic) [Example 127, rac-(7S)-7-tert-butyl-N-[rac-(1R)-3-(4-hydroxypiperidin-1-ium-1-yl)-1-[4-(2-oxo-1H-pyrimidin-5-yl)phenyl]propyl]-5,6,7,8-tetrahydrothiazolo [5,4-b]quinoline-2-carboxamide; 2,2,2-trifluoroacetate]: 6.34; `CC(C)(C)[C@H]1CCc2nc3sc(C(=O)N[C@H](CCN4CCC(O)CC4)c4ccc(-c5ccc(OCCF)nc5)cc4)nc3cc2C1` (racemic) [Example 128, rac-(7S)-7-tert-butyl-N-[rac-(1R)-1-[4-[6-(2-fluoroethoxy)-3-pyridyl]phenyl]-3-(4-hydroxypiperidin-1-ium-1-yl)propyl]-5,6,7,8-tetrahydrothiazolo[5,4-b] quinoline-2-carboxamide; 2,2,2-trifluoroacetate]: 5.93.

In the case of `CC(C)(C)[C@H]1CCc2nc3sc(C(=O)N[C@H](CCN4CCC(O)CC4)c4ccc(-c5ccc(O)cc5)cc4)nc3cc2C1` (racemic) [Example 129, rac-(7S)-7-tert-butyl-N-[rac-(1R)-1-[4-(4-hydroxyphenyl)phenyl]-3-(4-hydroxypiperidin-1-ium-1-yl)propyl]-5,6,7,8-tetrahydrothiazolo[5,4-b] quinoline-2-carboxamide; 2,2,2-trifluoroacetate], the pEC50 was 5.84. The compound `CC(C)(C)[C@H]1CCc2nc3sc(C(=O)N[C@H](CCN4CCC(O)CC4)c4cccc(C(=O)N[C@@H]5CCNC5)c4)nc3cc2C1` (racemic) [Example 130, rac-(7S)-7-tert-butyl-N-[rac-(1R)-3-(4-hydroxy-1-piperidyl)-1-[3-[[rac-(3R)-pyrrolidin-3-yl]carbamoyl]phenyl]propyl]-5,6,7,8-tetrahydrothiazolo[5,4-b]quinoline-2-carboxamide] had a pEC50 of 7.02. Then `CC(C)(C)[C@H]1CCc2nc3sc(C(=O)N[C@H](CCN4CCC(O)CC4)c4cccc(C(=O)N5CC6(CCCNC6)C5)c4)nc3cc2C1` (racemic) [Example 131, rac-(7S)-7-tert-butyl-N-[rac-(1R)-1-[3-(2,8-diazaspiro[3.5]nonane-2-carbonyl)phenyl]-3-(4-hydroxy-1-piperidyl)propyl]-5,6,7,8-tetrahydrothiazolo[5,4-b]quinoline-2-carboxamide], with 7.01; and `CC(C)(C)[C@H]1CCc2nc3sc(C(=O)N[C@H](CCN4CCC(O)CC4)c4cccc(C(=O)N5CC(CN6CCCC6)C5)c4)nc3cc2C1` (racemic) [Example 132, rac-(7S)-7-tert-butyl-N-[rac-(1R)-3-(4-hydroxy-1-piperidyl)-1-[3-[3-(pyrrolidin-1-ylmethyl)azetidine-1-carbonyl]phenyl]propyl]-5,6,7,8-tetrahydrothiazolo[5,4-b]quinoline-2-carboxamide], with 6.99; and `CC(C)(C)[C@H]1CCc2nc3sc(C(=O)N[C@H](CCN4CCC(O)CC4)c4cccc(C(=O)NC5CCNCC5)c4)nc3cc2C1` (racemic) [Example 133, rac-(7S)-7-tert-butyl-N-[rac-(1R)-3-(4-hydroxy-1-piperidyl)-1-[3-(4-piperidylcarbamoyl)phenyl]propyl]-5,6,7,8-tetrahydrothiazolo[5,4-b]quinoline-2-carboxamide], with 6.93.

In the case of `CN1CC[C@@H](NC(=O)c2cccc([C@@H](CCN3CCC(O)CC3)NC(=O)c3nc4cc5c(nc4s3)CC[C@H](C(C)(C)C)C5)c2)C1` (racemic) [Example 134, rac-(7S)-7-tert-butyl-N-[rac-(1R)-3-(4-hydroxy-1-piperidyl)-1-[3-[[rac-(3R)-1-methylpyrrolidin-3-yl]carbamoyl]phenyl]propyl]-5,6,7,8-tetrahydrothiazolo[5,4-b]quinoline-2-carboxamide], the pEC50 was 6.90. In the case of `CC(C)(C)[C@H]1CCc2nc3sc(C(=O)N[C@H](CCN4CCC(O)CC4)c4cccc(C(=O)N[C@@H]5CNC[C@H]5O)c4)nc3cc2C1` (racemic) [Example 135, rac-(7S)-7-tert-butyl-N-[rac-(1R)-3-(4-hydroxy-1-piperidyl)-1-[3-[[rac-(3R,4R)-4-hydroxypyrrolidin-3-yl]carbamoyl]phenyl]propyl]-5,6,7,8-tetrahydrothiazolo[5,4-b]quinoline-2-carboxamide], the pEC50 was 6.88.
